In experiment [1] the test system is SCC-7. Briefly: Anticlonogenic activity against mouse SCC-7 cells assessed as inhibition of colony formation under hypoxic condition by clonogenic survival assay. In kind it is functional.
Experiment [2] deals with HT-29. In words: Antiproliferative activity against human HT-29 cells assessed as inhibition of cell growth under hypoxia condition by SRB assay. The experiment is classed as functional, cell-based.
The test system of experiment [3] is HT-29. In words: Antiproliferative activity against human HT-29 cells assessed as inhibition of cell growth under normoxia condition by SRB assay. The experiment is classed as functional, cell-based.
Experiment [4] concerns SCC-7. In words: Anticlonogenic activity against mouse SCC-7 cells assessed as inhibition of colony formation under aerobic condition by clonogenic survival assay. The experiment is classed as functional.
Experiment [5] has as its system MCF7. In words: Antiproliferative activity against human MCF7 cells assessed as inhibition of cell growth measured after 72 hrs by fluorescence based assay. In kind it is functional. The following applies: MCF7, 72 h.
In experiment [6] the test system is K562. Briefly: Antiproliferative activity against human K562 cells assessed as inhibition of cell growth measured after 72 hrs by fluorescence based assay. The experiment is classed as functional. The following applies: K562, 72 h.
The target in experiment [7] is T1, Tyrosine-protein kinase JAK3 (Homo sapiens, UniProt P52333).
T1 sequence (P52333 whole entry): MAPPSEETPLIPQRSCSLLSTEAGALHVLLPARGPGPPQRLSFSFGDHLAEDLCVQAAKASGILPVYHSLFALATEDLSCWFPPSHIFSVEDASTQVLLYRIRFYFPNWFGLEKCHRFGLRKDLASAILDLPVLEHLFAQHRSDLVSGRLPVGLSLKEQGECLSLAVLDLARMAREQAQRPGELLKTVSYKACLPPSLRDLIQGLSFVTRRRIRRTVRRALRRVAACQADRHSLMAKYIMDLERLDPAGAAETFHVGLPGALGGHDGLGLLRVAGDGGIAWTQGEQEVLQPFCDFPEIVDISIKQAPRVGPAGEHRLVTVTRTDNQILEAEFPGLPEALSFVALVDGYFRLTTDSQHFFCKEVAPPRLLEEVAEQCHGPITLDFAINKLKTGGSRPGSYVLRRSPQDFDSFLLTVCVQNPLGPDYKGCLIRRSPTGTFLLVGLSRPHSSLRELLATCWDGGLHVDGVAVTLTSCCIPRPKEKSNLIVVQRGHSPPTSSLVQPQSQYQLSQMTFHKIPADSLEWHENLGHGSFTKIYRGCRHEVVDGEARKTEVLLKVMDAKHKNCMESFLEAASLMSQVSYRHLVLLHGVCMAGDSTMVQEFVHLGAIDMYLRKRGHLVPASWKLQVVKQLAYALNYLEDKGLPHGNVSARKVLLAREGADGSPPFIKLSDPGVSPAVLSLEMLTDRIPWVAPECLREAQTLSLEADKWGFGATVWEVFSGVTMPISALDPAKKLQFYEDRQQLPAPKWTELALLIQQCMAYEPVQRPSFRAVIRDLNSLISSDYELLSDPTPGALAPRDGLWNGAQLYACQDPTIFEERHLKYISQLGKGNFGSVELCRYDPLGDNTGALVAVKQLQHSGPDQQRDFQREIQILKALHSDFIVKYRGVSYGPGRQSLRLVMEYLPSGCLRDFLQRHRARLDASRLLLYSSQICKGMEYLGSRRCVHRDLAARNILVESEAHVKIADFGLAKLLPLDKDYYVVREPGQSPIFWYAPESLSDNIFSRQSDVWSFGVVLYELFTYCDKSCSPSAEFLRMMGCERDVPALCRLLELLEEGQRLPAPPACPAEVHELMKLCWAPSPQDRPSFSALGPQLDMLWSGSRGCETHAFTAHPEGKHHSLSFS
Briefly: Inhibition of JAK3 (unknown origin).

The target in experiment [8] is Tyrosine-protein kinase JAK2 (Homo sapiens, UniProt O60674). In words: Inhibition of JAK2 (unknown origin).
Sequence of Tyrosine-protein kinase JAK2 (O60674 whole entry): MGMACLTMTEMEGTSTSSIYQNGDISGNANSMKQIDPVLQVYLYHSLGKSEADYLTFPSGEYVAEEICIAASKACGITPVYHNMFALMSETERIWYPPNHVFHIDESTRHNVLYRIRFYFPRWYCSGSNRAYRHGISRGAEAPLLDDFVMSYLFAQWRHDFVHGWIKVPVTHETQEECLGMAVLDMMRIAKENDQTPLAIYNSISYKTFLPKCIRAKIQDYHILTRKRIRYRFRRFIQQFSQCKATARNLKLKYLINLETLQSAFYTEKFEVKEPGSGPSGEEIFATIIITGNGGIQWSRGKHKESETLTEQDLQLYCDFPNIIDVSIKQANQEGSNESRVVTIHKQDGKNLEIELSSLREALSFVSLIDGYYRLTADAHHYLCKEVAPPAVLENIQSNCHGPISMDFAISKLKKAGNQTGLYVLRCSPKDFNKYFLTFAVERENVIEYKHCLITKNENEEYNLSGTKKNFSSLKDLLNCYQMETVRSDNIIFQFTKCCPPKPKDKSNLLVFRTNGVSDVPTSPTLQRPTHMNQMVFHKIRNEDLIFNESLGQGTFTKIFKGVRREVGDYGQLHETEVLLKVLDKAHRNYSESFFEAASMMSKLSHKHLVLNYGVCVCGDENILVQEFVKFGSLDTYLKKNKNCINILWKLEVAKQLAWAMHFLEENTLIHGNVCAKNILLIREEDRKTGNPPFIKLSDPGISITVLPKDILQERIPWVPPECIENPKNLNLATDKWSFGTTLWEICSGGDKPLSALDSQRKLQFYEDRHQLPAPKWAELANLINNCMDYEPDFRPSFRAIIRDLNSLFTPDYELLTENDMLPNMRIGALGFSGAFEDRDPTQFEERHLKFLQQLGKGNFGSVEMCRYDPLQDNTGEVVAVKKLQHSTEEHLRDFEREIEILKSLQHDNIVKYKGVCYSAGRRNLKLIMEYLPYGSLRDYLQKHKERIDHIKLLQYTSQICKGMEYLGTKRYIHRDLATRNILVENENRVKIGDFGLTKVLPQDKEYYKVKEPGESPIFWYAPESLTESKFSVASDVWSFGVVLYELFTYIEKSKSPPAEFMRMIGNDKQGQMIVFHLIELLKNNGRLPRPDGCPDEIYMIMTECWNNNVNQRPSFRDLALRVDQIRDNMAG
Experiment [9] concerns MCF7. Briefly: Antiproliferative activity against human MCF7 cells assessed as inhibition of cell growth. In kind it is functional, cell-based.
Experiment [10] has as its system HCT-116. Briefly: Antiproliferative activity against human HCT-116 cells assessed as inhibition of cell growth. In kind it is functional, cell-based.
The target in experiment [11] is Cyclin-dependent kinase 2/cyclin E (Homo sapiens, UniProt P24941). In words: Inhibition of CDK2/cyclin E (unknown origin). The experiment is classed as protein-complex assay.

Each structure is given as a SMILES string. pIC50: −log10 of the molar value. ≈ marks a conversion by molar mass, not a printed value.

As to `O=C(NCCNCCNc1n[n+]([O-])c2ccccc2[n+]1[O-])c1cccc2cc3ccccc3nc12`, the values for the C10 in experiment [1] and in experiment [4] were 0.18 µM and 6.4 µM, respectively. The pIC50 is 7.80 in experiment [2] and 6.22 in experiment [3].
In the case of `Cc1cccc2nc3cccc(C(=O)NCCCN(C)CCCNc4n[n+]([O-])c5ccccc5[n+]4[O-])c3nc12`, the C10 in [1] came to 0.18 µM; in experiment [4], 6.4 µM. For the same compound, the negative-log IC50 (pIC50) in experiment [2] is 7.80; in experiment [3] it was 6.22.
As for `CN(CCCNC(=O)c1cccc2ccc(-c3ccncc3)nc12)CCCNc1n[n+]([O-])c2ccccc2[n+]1[O-]`, the C10 worked out at 0.18 µM in experiment [1] and 6.4 µM in experiment [4]. Further, the pIC50 is 7.80 in [2] and 6.22 in experiment [3].
For `O=C(NCCOCCNc1n[n+]([O-])c2ccccc2[n+]1[O-])c1cccc2cc3ccccc3nc12` the same measures were 0.18 µM, 6.4 µM, 7.80 and 6.22.
For `CN(CCNC(=O)c1cccc2cc3ccccc3nc12)CCNc1n[n+]([O-])c2ccccc2[n+]1[O-]`, the C10 in experiment [1] was found to be 0.18 µM; in experiment [4], 6.4 µM. Besides, the negative-log IC50 (pIC50) was 7.80 in experiment [2] and 6.22 in experiment [3].
For the compound `CN(CCCNC(=O)c1cccc2cccnc12)CCCNc1n[n+]([O-])c2ccccc2[n+]1[O-]`, the C10 in experiment [1] stood at 0.18 µM; in experiment [4], 6.4 µM. Also, the results for the pIC50 in experiment [2] and in [3] were 7.80 and 6.22, respectively.
For `CN(CCCNC(=O)c1cccc2nc3ccccc3nc12)CCCNc1n[n+]([O-])c2ccccc2[n+]1[O-]` the same measures were 0.18 µM, 6.4 µM, 7.80 and 6.22.
For `Cc1cccc2cc3cccc(C(=O)NCCCN(C)CCCNc4n[n+]([O-])c5ccccc5[n+]4[O-])c3nc12`, the C10 in experiment [1] stood at 0.18 µM; in experiment [4], 6.4 µM. Moreover, the values for the pIC50 in experiment [2] and in experiment [3] were 7.80 and 6.22, respectively.
As for `CN(CCCNC(=O)c1cccc2cc3ccccc3nc12)CCCNc1n[n+]([O-])c2ccccc2[n+]1[O-]`, the C10 worked out at 0.18 µM in experiment [1] and 6.4 µM in experiment [4]. The results for the pIC50 in [2] and in experiment [3] were 7.80 and 6.22, respectively.
For `O=C(NCCCNCCCNc1n[n+]([O-])c2ccccc2[n+]1[O-])c1cccc2cc3ccccc3nc12` the same measures were 0.18 µM, 6.4 µM, 7.80 and 6.22.
`CCN(CC)c1nc(=O)n(-c2ccccc2)nc1-c1ccccc1O`: the pIC50 in experiment [5] and in experiment [6] was 5.46 in each case.
Take `NC(CCCCNc1nc(=O)n(-c2ccccc2)nc1-c1ccccc1O)C(=O)O` (centres undefined): the pIC50 in experiment [5] and in [6] was 5.46 in each case.
For the compound `CC(C)C(Nc1cnnc(-c2c[nH]c3ncc(F)cc23)n1)C(=O)NCC(C)(C)C` (centres undefined), the pIC50 in [7] and in [8] was no less than 8.00 in each case.
On to `Nc1nc(=O)n(-c2ccccc2)nc1-c1ccccc1O`, for which the pIC50 in experiment [5] and in experiment [6] was 5.46 in each case.
As to `NCCCCNc1nc(=O)n(-c2ccccc2)nc1-c1ccccc1O`, the pIC50 in experiment [5] and in experiment [6] was 5.46 throughout.
Take `O=c1nc(N2CCCCC2)c(-c2ccccc2O)nn1-c1ccccc1`: the negative-log IC50 (pIC50) in experiment [5] and in experiment [6] was 5.46 throughout.
On to `COc1cc(Cc2nc(-c3ccccc3)nn3cnnc23)cc(OC)c1OC`, for which the 50% inhibitory concentration (IC50) was determined as 0.74 µg/mL (≈ 1.96 µM) in experiment [9] and 0.74 µg/mL in [10].
In the case of `CC(C)C(Nc1cnnc(-c2c[nH]c3ncc(Cl)cc23)n1)C(=O)NCC(C)(C)C` (centres undefined), the pIC50 in [7] and in experiment [8] was no less than 8.00 throughout.
In the case of `CC(C)(C)CNC(=O)C(C)(C)Nc1cnnc(-c2c[nH]c3ncc(F)cc23)n1`, the pIC50 in experiment [7] and in experiment [8] was no less than 8.00 throughout.
Take `CC(C)(C)CNC(=O)C(C)(C)Nc1cnnc(-c2c[nH]c3ncc(C#N)cc23)n1`: the pIC50 in experiment [7] and in experiment [8] was no less than 8.00 throughout.
As to `CC(C)C(Nc1cnnc(-c2c[nH]c3ncc(C(N)=O)cc23)n1)C(=O)NCC(C)(C)C` (centres undefined), the pIC50 in experiment [7] and in experiment [8] was no less than 8.00 each time.
With `CNc1nc(=O)n(-c2ccccc2)nc1-c1ccccc1O`, the pIC50 in experiment [5] and in experiment [6] was 5.46 each time.
In the case of `O=c1nc(NC2CCCCC2)c(-c2ccccc2O)nn1-c1ccccc1`, the pIC50 in [5] and in experiment [6] was 5.46 each time.
Compound `Cc1n[nH]c(=S)n(-c2nnc(-c3ccc(F)cc3)c(-c3ccc(F)cc3)n2)c1=O` gave a pIC50 in experiment [11] of 5.01.
As for `CC(Nc1cnnc(-c2c[nH]c3ncc(C#N)cc23)n1)C(=O)NCC(C)(C)C` (centres undefined), the pIC50 in experiment [7] and in experiment [8] was no less than 8.00 in each case.
As to `COc1cc(Cc2nc(-c3ccc(Cl)cc3)nn3c(=S)[nH]nc23)cc(OC)c1OC`, the IC50 in experiment [9] is 0.74 µg/mL (≈ 1.67 µM); in [10], 0.74 µg/mL.
In the case of `Nc1ccc(F)cc1C1=NNC(Nc2ccc(F)cc2)NC1=O` (centres undefined), the pIC50 in [11] was 5.42.
The compound `CNc1ccc(F)cc1C1=NNC(SC)NC1=O` (centres undefined) had a pIC50 in experiment [11] of 5.30.
Consider `O=c1nc(Nc2ccccc2)c(-c2ccccc2O)nn1-c1ccccc1`, for which the pIC50 in [5] and in [6] was 5.46 each time.
Take `O=c1nc(NCCCCCCNc2nc(=O)n(-c3ccccc3)nc2-c2c(O)ccc3ccccc23)c(-c2c(O)ccc3ccccc23)nn1-c1ccccc1`: the pIC50 in experiment [5] and in experiment [6] was 5.46 throughout.
`CSC1NN=C(c2cc(F)ccc2NC(=O)c2ccc(F)cc2)C(=O)N1` (centres undefined) showed a pIC50 in experiment [11] of 5.42.
Consider `CC(C)(C)CNC(=O)C(C)(C)Nc1cnnc(-c2c[nH]c3ncc(C(N)=O)cc23)n1`, for which the pIC50 in experiment [7] and in experiment [8] was no less than 8.00 each time.
As for `NNc1nc(=O)n(-c2ccccc2)nc1-c1ccccc1O`, the pIC50 in [5] and in experiment [6] was 5.46 throughout.
`O=C1NC(SSC2NN=C(c3cc(F)ccc3NC(=O)c3ccc(F)cc3)C(=O)N2)NN=C1c1cc(F)ccc1NC(=O)c1ccc(F)cc1` (centres undefined) showed a negative logarithm of the IC50 (pIC50) in [11] of 5.42.
Consider `O=c1nc(NCCCCCN(CCCNc2nc(=O)n(-c3ccccc3)nc2-c2ccccc2O)c2nc(=O)n(-c3ccccc3)nc2-c2ccccc2O)c(-c2ccccc2O)nn1-c1ccccc1`, for which the pIC50 in [5] and in experiment [6] was 5.46 each time.
Take `Nc1ccc(F)cc1C1=NNC(S)NC1=O` (centres undefined): the pIC50 in [11] is 5.42.
`NNC(=S)Nc1nnc(-c2ccc(F)cc2)c(-c2ccc(F)cc2)n1` showed a pIC50 in [11] of 4.95.
Turning to `NCCNc1nc(=O)n(-c2ccccc2)nc1-c1ccccc1O`, the pIC50 in experiment [5] and in [6] was 5.46 each time.
With `O=c1nc(NNc2ccccc2)c(-c2ccccc2O)nn1-c1ccccc1`, the negative logarithm of the IC50 (pIC50) in [5] and in experiment [6] was 5.46 throughout.
On to `Fc1ccc(-c2nnc(-n3c(=S)[nH][nH]c3=S)nc2-c2ccc(F)cc2)cc1`, for which the pIC50 in experiment [11] was 5.00.
Take `CC(C)C(Nc1cnnc(-c2c[nH]c3ncc(C#N)cc23)n1)C(=O)NCC(C)(C)C` (centres undefined): the negative logarithm of the IC50 (pIC50) in experiment [7] and in experiment [8] was no less than 8.00 throughout.
Regarding `COc1cc(-c2csc3nnc(-c4ccc(Cl)cc4)nc23)cc(OC)c1OC`, the IC50 amounted to 0.74 µg/mL (≈ 1.79 µM) in experiment [9] and 0.74 µg/mL in experiment [10].
In experiment [11], `Fc1ccc(-c2nnc(-n3cn[nH]c3=S)nc2-c2ccc(F)cc2)cc1` showed a pIC50 of 4.96.
`COc1cnc2[nH]cc(-c3nncc(NC(C(=O)NCC(C)(C)C)C(C)C)n3)c2c1` (centres undefined): the pIC50 in experiment [7] and in [8] was no less than 8.00 each time.
For the compound `NC(=O)NNc1nc(=O)n(-c2ccccc2)nc1-c1ccccc1O`, the pIC50 in experiment [5] and in experiment [6] was 5.46 throughout.
As to `CN1CCN(CC(=O)Nc2cc(C(=O)Nc3ncc(-c4ccccc4)nn3)ccc2OC(F)(F)F)CC1`, the pIC50 in experiment [10] is 7.80.
In the case of `CC(Nc1cnnc(-c2c[nH]c3ncc(C(N)=O)cc23)n1)C(=O)NCC(C)(C)C` (centres undefined), the pIC50 in experiment [7] and in experiment [8] was no less than 8.00 each time.

Values taken from ChEMBL document CHEMBL5260813, “An overview on the recent developments of 1,2,4-triazine derivatives as anticancer compounds” (Eur J Med Chem, 2017).
